Results as given in ChEMBL document CHEMBL2375333, “Triterpenes from the aerial parts of Cimicifuga yunnanensis and their antiproliferative effects on p53(N236S) mouse embryonic fibroblasts” (J Nat Prod, 2013).

Experiments:
[1] = system: MEF; test: Cytotoxicity against mouse MEF cells harboring H-RasV12 and p53 N236S mutant after 48 hrs by MTT assay; format: functional, cell-based
[2] = system: MEF; test: Cytotoxicity against mouse wild type MEF cells after 48 hrs by MTT assay; format: cell-based
[3] = system: MEF; test: Cytotoxicity against p53-/- mouse MEF cells harboring H-RasV12 after 48 hrs by MTT assay; format: functional, cell-based

C[C@@H]1C[C@]2(OC[C@](C)(O)[C@H]2O)O[C@H]2C[C@@]3(C)C4=C(C[C@@H](O)[C@]3(C)[C@@H]12)[C@@]1(C)CC[C@H](O)C(C)(C)[C@@H]1CC4
IC50 [1]: 5.5 µM
IC50 [2]: 14.5 µM

C[C@@H]1C[C@H]2O[C@]3(O[C@@H]2C(C)(C)O)[C@H]1[C@@]1(C)CCC2=C(CC[C@H]4C(C)(C)[C@@H]5CC[C@@]4(C2)O5)[C@]1(C)[C@H]3O [ACERINOL]
IC50 [3]: 10.2 µM

C[C@@H]1C[C@H]2O[C@@]3(O[C@@H]2C(C)(C)O)[C@H]1[C@@]1(C)[C@H](O)C[C@@]24C[C@@]25CC[C@H](O)C(C)(C)[C@@H]5CC=C4[C@]1(C)[C@H]3O
IC50 [3]: 9.8 µM

C[C@@H]1C[C@]2(OC[C@](C)(O)[C@H]2O)O[C@H]2C[C@@]3(C)C4=CC[C@H]5C(C)(C)[C@@H](O)CC[C@]5(C)C4=CC[C@]3(C)[C@@H]12
IC50 [1]: 8.6 µM
IC50 [2]: 6 µM

C[C@@H]1C[C@@]2(O[C@H]3C[C@@]4(C)[C@@H]5CC[C@H]6C(C)(C)[C@@H](O)CC[C@@]67C[C@@]57C[C@@H](O)[C@]4(C)[C@@H]13)O[C@H](O)[C@]1(C)O[C@H]21 [ACTEOL]
IC50 [3]: 7.4 µM

CC(=O)O[C@@H]1C[C@@]23C[C@@]24CC[C@H](O)C(C)(C)[C@@H]4CC[C@H]3[C@]2(C)C[C@@H]3OC(=O)C[C@@H](C)[C@@H]3[C@@]12C
IC50 [3]: 7.5 µM

C=C(C)[C@@H]1O[C@]23O[C@@H]1C[C@@H](C)[C@@H]2[C@@]1(C)CC[C@@]24C[C@@]25CC[C@H](O)C(C)(C)[C@@H]5CC[C@H]4[C@]1(C)[C@H]3O
IC50 [3]: 6.2 µM
